For 14 compounds, IC50 results are on record in ChEMBL document CHEMBL5360539, “RSK inhibitors as potential anticancer agents: Discovery, optimization, and challenges” (Eur J Med Chem, 2023).

The target in test [1] is Ribosomal protein S6 kinase alpha-1 (Homo sapiens, UniProt Q15418). The test is described as follows: Inhibition of RSK1 (unknown origin).
Test [2] has as its target T1, Ribosomal protein S6 kinase alpha-3 (Homo sapiens, UniProt P51812). The test is described as follows: Inhibition of recombinant His-tagged RSK2 (unknown origin) expressed in Sf9 cells.
The target in test [3] is T1, Ribosomal protein S6 kinase alpha-3. Briefly: Inhibition of RSK2 (unknown origin).
For test [4], the target named is Ribosomal protein S6 kinase alpha-6 (Homo sapiens, UniProt Q9UK32). Briefly: Inhibition of RSK4 (unknown origin).
Sequence of Ribosomal protein S6 kinase alpha-6 (Q9UK32 whole entry): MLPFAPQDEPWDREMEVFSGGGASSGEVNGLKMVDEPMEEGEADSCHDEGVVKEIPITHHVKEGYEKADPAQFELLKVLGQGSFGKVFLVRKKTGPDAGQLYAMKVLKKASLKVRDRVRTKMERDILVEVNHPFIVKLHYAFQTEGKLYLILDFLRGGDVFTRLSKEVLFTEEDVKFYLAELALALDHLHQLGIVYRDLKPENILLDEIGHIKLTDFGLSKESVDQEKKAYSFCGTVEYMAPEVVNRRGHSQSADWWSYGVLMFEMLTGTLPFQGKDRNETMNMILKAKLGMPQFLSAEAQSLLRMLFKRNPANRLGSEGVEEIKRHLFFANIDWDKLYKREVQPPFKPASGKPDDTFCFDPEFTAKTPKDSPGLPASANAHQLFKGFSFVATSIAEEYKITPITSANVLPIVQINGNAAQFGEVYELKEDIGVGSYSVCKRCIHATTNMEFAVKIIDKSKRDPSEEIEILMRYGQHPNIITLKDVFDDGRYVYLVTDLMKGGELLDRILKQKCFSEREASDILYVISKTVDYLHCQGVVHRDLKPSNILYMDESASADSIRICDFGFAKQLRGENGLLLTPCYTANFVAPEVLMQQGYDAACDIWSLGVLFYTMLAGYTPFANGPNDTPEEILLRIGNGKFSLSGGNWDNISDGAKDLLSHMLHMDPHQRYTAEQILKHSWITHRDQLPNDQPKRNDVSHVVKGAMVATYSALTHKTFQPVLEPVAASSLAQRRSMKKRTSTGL
The target of test [5] is Ribosomal protein S6 kinase alpha-2 (Homo sapiens, UniProt Q15349). The test is described as follows: Inhibition of RSK3 (unknown origin).
Sequence of Ribosomal protein S6 kinase alpha-2 (Q15349 whole entry): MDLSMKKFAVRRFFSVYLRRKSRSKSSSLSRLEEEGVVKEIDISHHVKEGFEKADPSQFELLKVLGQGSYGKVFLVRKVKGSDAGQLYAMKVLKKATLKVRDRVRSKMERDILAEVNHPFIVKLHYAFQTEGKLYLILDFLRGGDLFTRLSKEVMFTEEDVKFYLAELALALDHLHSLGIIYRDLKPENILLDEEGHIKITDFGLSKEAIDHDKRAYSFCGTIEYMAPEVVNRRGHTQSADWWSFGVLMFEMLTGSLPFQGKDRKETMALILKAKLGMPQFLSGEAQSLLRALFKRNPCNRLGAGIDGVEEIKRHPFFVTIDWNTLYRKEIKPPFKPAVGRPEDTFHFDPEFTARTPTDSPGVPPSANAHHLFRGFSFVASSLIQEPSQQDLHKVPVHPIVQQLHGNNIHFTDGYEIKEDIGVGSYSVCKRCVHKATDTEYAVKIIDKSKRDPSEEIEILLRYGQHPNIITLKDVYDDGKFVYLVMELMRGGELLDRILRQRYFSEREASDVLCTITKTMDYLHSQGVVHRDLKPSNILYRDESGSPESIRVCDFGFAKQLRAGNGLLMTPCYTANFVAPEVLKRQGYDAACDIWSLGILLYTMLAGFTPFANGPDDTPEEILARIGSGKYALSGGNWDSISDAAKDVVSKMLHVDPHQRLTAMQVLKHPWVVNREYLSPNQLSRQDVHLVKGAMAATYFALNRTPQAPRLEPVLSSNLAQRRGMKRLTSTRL
For test [6], the target named is T1, Ribosomal protein S6 kinase alpha-3. Briefly: Inhibition of wild type RSK2 (unknown origin).
The target is the same in test [7]. The test is described as follows: Inhibition of RSK2 expressed in human MCF7 cells incubated for 1 hrs by. Type of test: cell-based.
Test [8] is described as follows: Inhibition of recombinant N-terminal RSK (unknown origin) expressed in Sf21 cells. Details: species or system Homo sapiens.
The target in test [9] is T1, Ribosomal protein S6 kinase alpha-3. The test is described as follows: Inhibition of human recombinant RSK2.

SMILES strings stand for the structures. Structures can show the parent of a compound that is named as a salt.

Sequence of Ribosomal protein S6 kinase alpha-1 (Q15418 whole entry): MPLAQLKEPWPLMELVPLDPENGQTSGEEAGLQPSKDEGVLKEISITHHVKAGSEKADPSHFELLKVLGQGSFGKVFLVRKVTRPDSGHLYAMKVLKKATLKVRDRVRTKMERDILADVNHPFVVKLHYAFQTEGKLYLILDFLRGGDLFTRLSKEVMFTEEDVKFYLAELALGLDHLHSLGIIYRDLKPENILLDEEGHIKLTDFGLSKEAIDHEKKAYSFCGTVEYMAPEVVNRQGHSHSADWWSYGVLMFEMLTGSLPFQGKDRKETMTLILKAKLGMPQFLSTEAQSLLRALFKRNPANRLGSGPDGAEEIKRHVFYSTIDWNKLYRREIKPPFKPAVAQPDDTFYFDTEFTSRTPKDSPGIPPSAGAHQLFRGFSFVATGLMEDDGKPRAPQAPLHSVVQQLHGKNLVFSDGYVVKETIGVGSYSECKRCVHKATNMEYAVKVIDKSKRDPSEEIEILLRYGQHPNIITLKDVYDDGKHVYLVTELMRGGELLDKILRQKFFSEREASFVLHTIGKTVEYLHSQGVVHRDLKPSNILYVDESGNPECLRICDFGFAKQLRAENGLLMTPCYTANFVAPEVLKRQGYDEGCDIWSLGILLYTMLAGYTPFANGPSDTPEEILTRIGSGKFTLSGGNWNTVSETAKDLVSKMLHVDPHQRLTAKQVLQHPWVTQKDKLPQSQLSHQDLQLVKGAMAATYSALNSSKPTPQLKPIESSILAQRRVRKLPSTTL
T1 sequence (P51812 whole entry): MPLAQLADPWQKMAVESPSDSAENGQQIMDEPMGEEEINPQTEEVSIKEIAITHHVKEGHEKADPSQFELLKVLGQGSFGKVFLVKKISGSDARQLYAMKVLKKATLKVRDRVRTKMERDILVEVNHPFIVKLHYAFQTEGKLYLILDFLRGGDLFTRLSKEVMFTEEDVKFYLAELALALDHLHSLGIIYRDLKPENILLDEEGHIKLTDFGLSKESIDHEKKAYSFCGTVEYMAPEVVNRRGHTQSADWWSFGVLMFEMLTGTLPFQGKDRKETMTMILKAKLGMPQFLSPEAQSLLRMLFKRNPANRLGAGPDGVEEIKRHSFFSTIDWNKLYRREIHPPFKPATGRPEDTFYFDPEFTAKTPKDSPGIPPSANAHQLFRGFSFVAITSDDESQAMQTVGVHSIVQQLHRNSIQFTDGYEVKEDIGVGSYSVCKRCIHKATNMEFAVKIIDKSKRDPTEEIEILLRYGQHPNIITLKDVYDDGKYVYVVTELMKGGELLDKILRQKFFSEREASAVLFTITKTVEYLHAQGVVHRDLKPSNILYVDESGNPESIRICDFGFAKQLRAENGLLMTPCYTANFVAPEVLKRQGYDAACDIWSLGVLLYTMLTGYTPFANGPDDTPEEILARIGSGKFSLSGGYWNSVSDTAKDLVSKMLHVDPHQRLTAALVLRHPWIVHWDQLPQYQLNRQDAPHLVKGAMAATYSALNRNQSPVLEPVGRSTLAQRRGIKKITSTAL

In general, IC50 refers to the point on the concentration scale where inhibition reaches its midpoint. The compound `CC(=O)O[C@@H]1[C@@H](OC(C)=O)[C@@H](O)[C@H](Oc2c(-c3ccc(O)cc3)oc3cc(O)cc(O)c3c2=O)O[C@H]1C` yielded an IC50 in test [1] of 0.089 µM.
In test [1], `Cn1cc(C2=C(c3ccc(Cl)cc3Cl)C(=O)NC2=O)c2ccccc21` [SB-216763] yielded an IC50 of 0.1 µM.
Regarding `CCCNC(=O)O[C@H]1[C@H](CCC)C[C@@H](Oc2c(-c3ccc(O)cc3)oc3cc(O)cc(O)c3c2=O)[C@H](O)[C@@H]1OC(=O)NCCC`, the IC50 in test [2] stood at 0.87 µM.
On to `CC(C)=CCC1=C(O)C(=O)c2ccccc2C1=O` [LAPACHOL], for which half-maximal inhibition in test [3] (IC50) required 2 µM.
As to `CCCNC(=O)O[C@@H]1[C@@H](OC(C)=O)[C@@H](O)[C@H](Oc2c(-c3ccc(O)cc3)oc3cc(O)cc(O)c3c2=O)O[C@H]1CCC`, in [4], it took 6.2 µM to reach half-maximal inhibition (IC50).
For `O=C1c2ccccc2-c2c(NCCc3ccccc3)c(=O)[nH]c3cccc1c23`, the IC50 was 1.2 µM in test [5], 1.5 µM in test [1] and 2.4 µM in test [3].
Compound `CN(C)CCCn1cc(C2=C(c3c[nH]c4ccccc34)C(=O)NC2=O)c2ccccc21` [GF-109203] yielded a half-inhibitory concentration (IC50) in [1] of 0.61 µM.
The compound `Cc1ccc(-c2c(C(=O)CCl)n(CCCO)c3ncnc(N)c23)cc1` gave an IC50 in test [6] of 0.015 µM.
Turning to `CCC[C@@H]1C[C@@H](Oc2c(-c3ccc(O)cc3)oc3cc(O)cc(O)c3c2=O)[C@H](O)[C@H](OC(C)=O)[C@H]1OC(C)=O`, the IC50 in test [2] worked out at 0.87 µM.
`O=C1C[C@@H](c2ccc(O)c(O)c2)Oc2cc(O)cc(O)c21` [ERIODICTYOL]: in test [7], the IC50 amounted to 4.77 µM.
Consider `CC(C)CCN1c2nc(Nc3cc(F)c(O)c(F)c3)ncc2N(C)C(=O)C1C` (stereo unspecified), for which the IC50 in test [8] came out at 0.01 µM.
In the case of `COC(=O)/C=C/C(=O)OC` [DIMETHYL FUMARATE], the IC50 in [9] came to 225 µM.
For the compound `O=C1Nc2ccccc2/C1=C1/Nc2ccccc2/C1=N\O`, in test [1], the IC50 is 0.1 µM.
`Cn1cc(C2=C(c3cn(CCCSC(=N)N)c4ccccc34)C(=O)NC2=O)c2ccccc21` [BISINDOLYLMALEIMIDE IX]: the IC50 in [1] is 0.2 µM.
